Data set [1] in a line: Human liver microsome (HLM) assay. Particulars: human liver microsomes. It counts as in vitro ADME. As to the method:
Compound metabolism in human liver microsomes was measured by LC-MS analytical assay procedures as follows. First, human liver microsomes (HLM) were thawed and diluted to 5 mg/mL with cold 100 mM potassium phosphate (KPO4) buffer. Appropriate amounts of KPO4 buffer, NADPH-regenerating solution (containing B-NADP, glucose-6-phosphate, glucose-6-phosphate dehydrogenase, and MgCl2), and HLM were preincubated in 13×100 mm glass tubes at 37° C. for 10 min. (3 tubes per test compound—triplicate). Test compound (5 μM final) was added to each tube to initiate reaction and was mixed by gentle vortexing, followed by incubation at 37° C. […] Samples were centrifuged at 4000 rpm for 20 min. to precipitate proteins and salt (Beckman Allegra 6KR, S/N ALK98DO6, #634). Supernatant was transferred to new 12×75 mm glass tubes and evaporated by Speed-Vac centrifugal vacuum evaporator. Samples were reconstituted in 200 μL 0.1% formic acid/acetonitrile (90/10) and vortexed vigorously to dissolve. The samples were then transferred to separate polypropylene microcentrifuge tubes and centrifuged at 14000×g for 10 min. (Fisher Micro 14, S/N M0017580). […]
The combined compound samples were injected into the LC-MS system, composed of a Hewlett-Packard HP1100 diode array HPLC and a Micromass Quattro II triple quadruple mass spectrometer operating in positive electrospray SIR mode (programmed to scan specifically for the molecular ion of each test compound). Each test compound peak was integrated at each timepoint. […]

In data set [2] the target is T1, unphosphorylated VEGF-R2Δ50 (FLVK) (Homo sapiens, UniProt P35968, DEL940-989/E990V).
T1 construct: VEGF-R2Δ50 contains residues 806-939 and 990-1171; made in house; host or cells: baculovirus/insect cell system
The data set is described as follows: VEGF-R2 coupled spectrophotometric assay, unphosphorylated construct (FLVK). The data set is classed as biochemical. Particulars: for inhibition at 0.05 µM: percent inhibition at 50 nM. Put shortly:
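Human VEGF-R2Δ50 cytosolic kinase (residues 806-939/990-1171, E990V), baculovirus-expressed, unphosphorylated form. PK/LDH-coupled NADH oxidation at 340 nm with 20 mM poly(E4Y1), 3 mM ATP, 60 mM MgCl2, 2 mM MnCl2, 200 mM HEPES pH 7.5, 5-40 nM enzyme; Ki fitted by Morrison equation.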

Data set [3] concerns human umbilical vein endothelial cells (HUVEC). The data set is described as follows: HUVEC+VEGF proliferation assay. It counts as cell-based. The conditions noted are these: Homo sapiens, HUVEC, 72 h, VEGF 6 ng/mL, MTT. An outline of the steps:
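HUVEC (passage 3-4), serum-starved 24 h in F12K + 1% FBS, were pre-treated with compound for 1 h (0.1% DMSO final). They were then stimulated with VEGF at 6 ng/mL final. Proliferation was measured after 72 h by MTT dye reduction (4 h), with absorbance read at 595 nm.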

Each structure is given as a SMILES string.

T1 sequence (P35968 with tags, fused parts or gaps DEL940-989/E990V limits assumed): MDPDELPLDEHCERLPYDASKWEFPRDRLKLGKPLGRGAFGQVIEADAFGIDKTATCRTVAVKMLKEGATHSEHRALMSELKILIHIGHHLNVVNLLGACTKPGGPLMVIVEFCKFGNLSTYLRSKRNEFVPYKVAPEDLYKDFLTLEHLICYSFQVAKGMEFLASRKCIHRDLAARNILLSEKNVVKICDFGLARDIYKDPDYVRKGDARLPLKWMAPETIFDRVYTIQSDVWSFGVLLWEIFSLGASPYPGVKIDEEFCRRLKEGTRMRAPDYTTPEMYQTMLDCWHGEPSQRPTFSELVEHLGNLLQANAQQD

`CNC(=O)n1c(C)cc2cc(Nc3ccnc4cc(C(=O)N5CCC[C@H]5COC)sc34)ccc21` [Example 1t, 5-(2-[(S)-2-(methoxymethyl)pyrrolidine-1-carbonyl]thieno[3,2-b]pyridin-7-ylamino)-2-methylindole-1-carboxylic acid methylamide]: in data set [1], the “% remain (HLM-NADPH, 0.5 h)” value is 76.3%. Also, in data set [2], the inhibitory constant (Ki) was 1.13 nM and testing at 0.05 µM gave an inhibition of 87%.

On to `CNC(=O)n1c(C)cc2cc(Nc3ccnc4cc(-c5nccn5C)sc34)ccc21` [Example 2a, 5-(2-[1-methyl-1H-imidazol-2-yl]thieno[3,2-b]pyridin-7-ylamino)-2-methylindole-1-carboxylic acid methylamide], for which, in data set [1], the “% remain (HLM-NADPH, 0.5 h)” value is reported as 91.1% and the “% remain (HLM-UDPGA, 0.5 h)” value amounted to 101.8%. In data set [2], affinity was put at a Ki of 2.1 nM and 0.05 µM produced 84% inhibition.

Consider `CNC(=O)n1c(C)cc2cc(Nc3ccnc4cc(C(=O)N5CCC[C@H]5CO)sc34)ccc21` [Example 2b, 5-(2-[(S)-2-(hydroxymethyl)pyrrolidine-1-carbonyl]thieno[3,2-b]pyridin-7-ylamino)-2-methylindole-1-carboxylic acid methylamide], for which, in data set [1], the “% remain (HLM-NADPH, 0.5 h)” value is 92.1% and the “% remain (HLM-UDPGA, 0.5 h)” value worked out at 104.8%. In data set [2], this compound registered a Ki of 1.03 nM and an inhibition at 0.05 µM of 85%.

For the compound `CO[C@@H]1C[C@@H](CO)N(C(=O)c2cc3cccc(Nc4ccc5c(c4)cc(C)n5C(=O)NC4CC4)c3s2)C1` [Example 3g, 5-[2-((2S,4R)-2-Hydroxymethyl-4-methoxy-pyrrolidine-1-carbonyl)-benzo[b]thiophen-7-ylamino]-2-methyl-indole-1-carboxylic acid cyclopropylamide], the 50% inhibitory concentration (IC50) in data set [3] was 0.44 nM. In data set [2], this compound had a Ki of 1.12 nM and an inhibition at 0.05 µM of 95%.

For the compound `CNC(=O)n1c(C)cc2cc(Oc3ccnc4cc(C(=O)N5C[C@H](OC)C[C@H]5CO)sc34)ccc21` [Example 3o, 5-[2-(2-Hydroxymethyl-4-methoxy-pyrrolidine-1-carbonyl)-thieno[3,2-b]pyridin-7-yloxy]-2-methyl-indole-1-carboxylic acid methylamide], the IC50 in data set [3] came to 0.24 nM. Further, in data set [2], affinity was put at a Ki of 1.35 nM and at 0.05 µM the inhibition was 93%.

For `CNC(=O)n1c(C)cc2cc(Oc3ccnc4cc(C(=O)N5CCC[C@H]5COC)sc34)ccc21` [Example 4a, 5-(2-[(S)-2-(methoxymethyl)pyrrolidine-1-carbonyl]thieno[3,2-b]pyridin-7-yloxy)-2-methylindole-1-carboxylic acid methylamide], the IC50 in data set [3] worked out at 0.2 nM. In data set [2], this compound yielded a Ki of 1.1 nM and an inhibition at 0.05 µM of 96%.

In the case of `CNC(=O)n1c(C)cc2cc(Oc3ccnc4cc(C(=O)N5CCC[C@@H]5COC)sc34)ccc21` [Example 4e, 5-[2-(2R-Methoxymethyl-pyrrolidine-1-carbonyl)-thieno[3,2-b]pyridin-7-yloxy]-2-methyl-indole-1-carboxylic acid methylamide], in data set [3], the IC50 is 0.6 nM. In data set [2], this compound displayed a Ki of 0.14 nM and an inhibition at 0.05 µM of 96%.

`C#CCNC(=O)n1c(C)cc2cc(Oc3ccnc4cc(C(=O)N5CC[C@H](OC)C5)sc34)ccc21` [Example 4f, 5-[2-(3S-Methoxy-pyrrolidine-1-carbonyl)-thieno[3,2-b]pyridin-7-yloxy]-2-methyl-indole-1-carboxylic acid prop-2-ynylamide]: the IC50 in data set [3] was 0.057 nM. Also, in data set [2], the affinity corresponds to a Ki of 0.85 nM and the inhibition at 0.05 µM is 95%.

Consider `CNC(=O)n1c(C)cc2cc(Oc3ccnc4cc(C(=O)N5CC[C@H](OC)C5)sc34)ccc21` [Example 4g, 5-[2-(3S-Methoxy-pyrrolidine-1-carbonyl)-thieno[3,2-b]pyridin-7-yloxy]-2-methyl-indole-1-carboxylic acid methylamide], for which the IC50 in data set [3] stood at 0.139 nM. In data set [2], this compound had a Ki of 0.23 nM and an inhibition at 0.05 µM of 97%.

For `CO[C@H]1CCN(C(=O)c2cc3nccc(Oc4ccc5c(c4)cc(C)n5C(=O)NC4CC4)c3s2)C1` [Example 4h, 5-[2-(3S-Methoxy-pyrrolidine-1-carbonyl)-thieno[3,2-b]pyridin-7-yloxy]-2-methyl-indole-1-carboxylic acid cyclopropylamide], in data set [3], the IC50 amounted to 0.65 nM. In data set [2], this compound showed a Ki of 1.6 nM and an inhibition at 0.05 µM of 91%.

Take `CNC(=O)n1c(C)cc2cc(Oc3ccnc4cc(C(=O)N5CC[C@@H](OC)C5)sc34)ccc21` [Example 4j, 5-[2-(3R-Methoxy-pyrrolidine-1-carbonyl)-thieno[3,2-b]pyridin-7-yloxy]-2-methyl-indole-1-carboxylic acid methylamide]: in data set [3], the IC50 came out at 0.088 nM. In data set [2], the Ki worked out at 0.121 nM and testing at 0.05 µM gave an inhibition of 96%.

In the case of `C#CCNC(=O)n1c(C)cc2cc(Oc3ccnc4cc(C(=O)N5CC[C@@H](OC)C5)sc34)ccc21` [Example 4l, 5-[2-(3R-Methoxy-pyrrolidine-1-carbonyl)-thieno[3,2-b]pyridin-7-yloxy]-2-methyl-indole-1-carboxylic acid prop-2-ynylamide], the IC50 in data set [3] was 0.176 nM. Also, in data set [2], the affinity corresponds to a Ki of 0.19 nM and the inhibition at 0.05 µM is 96%.

With `CNC(=O)n1c(C)cc2cc(Oc3ccnc4cc(C(=O)N5CC[C@@H](O)C5)sc34)ccc21` [Example 4n, 5-[2-(3R-Hydroxy-pyrrolidine-1-carbonyl)-thieno[3,2-b]pyridin-7-yloxy]-2-methyl-indole-1-carboxylic acid methylamide], the IC50 in data set [3] was found to be 0.042 nM. In data set [2], this compound gave a Ki of 0.62 nM and an inhibition at 0.05 µM of 99%.

Regarding `C#CCNC(=O)n1c(C)cc2cc(Oc3ccnc4cc(C(=O)N5CC[C@@H](O)C5)sc34)ccc21` [Example 4o, 5-[2-(3R-Hydroxy-pyrrolidine-1-carbonyl)-thieno[3,2-b]pyridin-7-yloxy]-2-methyl-indole-1-carboxylic acid prop-2-ynylamide], in data set [3], the half-maximal inhibitory concentration (IC50) worked out at 0.071 nM. In data set [2], this compound yielded an inhibition constant Ki of 0.63 nM and an inhibition at 0.05 µM of 97%.

As to `Cc1cc2cc(Oc3ccnc4cc(C(=O)N5CC[C@@H](O)C5)sc34)ccc2n1C(=O)NC1CC1` [Example 4p, 5-[2-(3R-Hydroxy-pyrrolidine-1-carbonyl)-thieno[3,2-b]pyridin-7-yloxy]-2-methyl-indole-1-carboxylic acid cyclopropylamide], the IC50 in data set [3] worked out at 0.128 nM. In data set [2], this compound came in with a Ki of 0.25 nM and an inhibition at 0.05 µM of 98%.

`C#CCNC(=O)n1c(C)cc2cc(Oc3ccnc4cc(C(=O)N5CCC[C@@H]5CO)sc34)ccc21` [Example 8q, 5-[2-(2R-Hydroxymethyl-pyrrolidine-1-carbonyl)-thieno[3,2-b]pyridin-7-yloxy]-2-methyl-indole-1-carboxylic acid prop-2-ynylamide]: the IC50 in data set [3] was 0.19 nM. In data set [2], affinity was put at a Ki of 0.286 nM and the inhibition at 0.05 µM came to 97%.

For `CCCNC(=O)n1c(C)cc2cc(Oc3ccnc4cc(C(=O)N5CC[C@H](O)C5)sc34)ccc21` [Example 9i, 5-[2-(3S-Hydroxy-pyrrolidine-1-carbonyl)-thieno[3,2-b]pyridin-7-yloxy]-2-methyl-indole-1-carboxylic acid propylamide], the IC50 in data set [3] is 0.37 nM. In data set [2], affinity was put at a Ki of 0.245 nM and the inhibition at 0.05 µM is 98%.

`Cc1cc2cc(Oc3ccnc4cc(C(=O)N5CC[C@H](O)C5)sc34)ccc2n1C(=O)NCCO` [Example 9k, 5-[2-(3S-Hydroxy-pyrrolidine-1-carbonyl)-thieno[3,2-b]pyridin-7-yloxy]-2-methyl-indole-1-carboxylic acid (2-hydroxy-ethyl)-amide]: in data set [3], the IC50 is 0.49 nM. In data set [2], this compound yielded a Ki of 0.932 nM and an inhibition at 0.05 µM of 90%.

For `Cc1cc2cc(Oc3ccnc4cc(C(=O)N5CC[C@H](O)C5)sc34)ccc2n1C(=O)NCCCO` [Example 9l, 5-[2-(3S-Hydroxy-pyrrolidine-1-carbonyl)-thieno[3,2-b]pyridin-7-yloxy]-2-methyl-indole-1-carboxylic acid (3-hydroxy-propyl)-amide], the IC50 in data set [3] amounted to 0.27 nM. In data set [2], this compound had a Ki of 0.327 nM and an inhibition at 0.05 µM of 97%.

Broadly, the Ki is the dissociation constant of the complex between target and ligand, obtained from inhibition or displacement. The low end stands for higher affinity, the high end for lower affinity. By inhibition is commonly meant the relative decrease from the control value, in per cent. Read a low inhibition as a response near the control. The term IC50 denotes the concentration that gives 50% inhibition.
